In general, IC50 refers to the concentration needed to halve the response being measured.

From patent US20230303552A1, “ARYLSULFONYL DERIVATIVES AND THEIR USE AS MUSCARINIC ACETYLCHOLINE RECEPTOR M5 INHIBITORS” (Vanderbilt University, priority 2020, published 2023) come the findings set out here.

The target in this experiment is T1, human M5 receptors (hM5) (Homo sapiens, UniProt P08912).
T1 construct: expressed in transfected cells
T1 sequence (P08912 1-532): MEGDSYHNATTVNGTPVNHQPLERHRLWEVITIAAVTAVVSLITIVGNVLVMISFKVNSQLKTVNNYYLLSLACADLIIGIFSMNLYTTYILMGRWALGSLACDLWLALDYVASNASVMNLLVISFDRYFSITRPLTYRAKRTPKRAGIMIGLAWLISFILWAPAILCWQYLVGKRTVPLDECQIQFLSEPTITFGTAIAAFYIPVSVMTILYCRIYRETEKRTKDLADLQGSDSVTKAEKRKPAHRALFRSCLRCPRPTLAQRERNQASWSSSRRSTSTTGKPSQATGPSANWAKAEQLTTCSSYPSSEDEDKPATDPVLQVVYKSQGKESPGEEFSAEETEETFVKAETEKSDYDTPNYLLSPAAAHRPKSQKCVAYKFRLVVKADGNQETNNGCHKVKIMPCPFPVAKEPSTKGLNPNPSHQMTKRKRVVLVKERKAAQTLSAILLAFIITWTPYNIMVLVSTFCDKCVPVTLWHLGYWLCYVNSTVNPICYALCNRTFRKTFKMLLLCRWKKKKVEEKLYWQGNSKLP
In words: Cell-based functional calcium mobilization assay of mAChR M5 activity (inhibition of EC80 acetylcholine response) in CHO cells. The conditions noted are these: CHO cells stably expressing hM5; for IC50: calcium flux (Fluo-4), EC80 acetylcholine addition; for EC80 MIN: minimum of EC80 acetylcholine response, normalized to maximum acetylcholine response. A digest of the protocol: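 CHO cells stably expressing human M5, loaded with Fluo-4 AM in HBSS/20 mM HEPES/2.5 mM probenecid pH 7.4. Compound added 140 s before acetylcholine EC20, then EC80 added 125 s later. Calcium flux normalized to maximal acetylcholine response; IC50 from ten-point curves in the EC80 window.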
For orientation: Calcium assays in cells follow changes in intracellular calcium, usually with a dye or a luminescent sensor.

With `Cc1noc2ncc(S(=O)(=O)N3CC[C@@H](C(=O)Nc4ccc5scnc5c4)C3)cc12` [Compound 149, (R)-N-(benzuo[d]thiazo1-5-yl)-1-((3-methylisoxazolo[5,4-b]pyridin-5-yl)sulfonyl)pyrrolidine-3-carboxamide], the IC50 was above 10000 nM and the “EC80 MIN” value came to 36%.
As to `O=C(Nc1ccc2scnc2c1)[C@@H]1CCN(S(=O)(=O)c2ccc3c(c2)CCC3)C1` [Compound 150, (R)-N-(benzo[d]thiazol-5-yl)-1-((2,3-dihydro-1H-inden-5-yl)sulfonyl)pyrrolidine-3-carboxamide], the IC50 was above 10000 nM.
Take `Cc1noc(C)c1S(=O)(=O)N1CC[C@@H](C(=O)Nc2ccc3scnc3c2)C1` [Compound 151, (R)-N-(benzo[d]thiazo1-5-yl)-1-((3,5-dimethylisoxazol-4-yl)sulfonyl)pyrrolidine-3-carboxamide]: the IC50 turned out to be 3840 nM and the “EC80 MIN” value came to 5%.
As to `O=C(Nc1ccc2scnc2c1)[C@@H]1CCN(S(=O)(=O)c2ccc3ncccc3c2)C1` [Compound 152, (R)-N-(benzo[d]thiazol-5-yl)-1-(quinolin-6-ylsulfonyl)pyrrolidine-3-carboxamide], the IC50 worked out at 352 nM and the “EC80 MIN” value is given as 3%.
Turning to `COc1ccc(S(=O)(=O)N2CC[C@@H](C(=O)Nc3ccc4scnc4c3)C2)c(C)c1` [Compound 153, (R)-N-(benzo[d]thiazo1-5-yl)-1-((4-methoxy-2-methylphenyl)sulfonyl)pyrr olidine-3-carboxarnide], the IC50 was found to be 1470 nM and the “EC80 MIN” value was 3%.
As for `O=C(Nc1ccc2scnc2c1)[C@@H]1CCN(S(=O)(=O)c2ccc3c(c2)OCO3)C1` [Compound 154, (R)-1-(benzo[d][1,3]dioxol-5-yisulfonyl)-N-(benzo[d]thiazol-5-yl)pyrrolidine-3-carboxamide], the IC50 amounted to 350 nM and the “EC80 MIN” value is given as 3%.
On to `O=C(Nc1ccc2scnc2c1)C1CCN(S(=O)(=O)c2ccccc2-c2ccno2)CC1` [Compound 155, N-(benzo[d]thiazol-5-yl)-1-((2-(isoxazol-5-yl)phenyl)sulfonyl)piperidine-4-carboxamide], for which the IC50 is above 10000 nM and the “EC80 MIN” value was 54%.
For `O=C(Nc1ccc2scnc2c1)C1CCN(S(=O)(=O)c2ccccc2F)CC1` [Compound 156, N-(benzo[d]thiazol-5-yl)-1-((2-fluorophcnyl)sulfonyl)piper idine-4-carboxaniide], in that order: above 10000 nM and 6%.
For `Cn1cc(S(=O)(=O)N2CCC(C(=O)Nc3ccc4scnc4c3)CC2)c(C(F)(F)F)n1` [Compound 157, N-(benzo[d]thiazol-5-yl)-1-((1-methyl-3-(trifluoromethyl)-1H-pyrazo1-4-yl)sulfonyl)piperidine-4-carboxamide], in that order: 2340 nM and 4%.
